# Measured values: patent US20030065030A1, “Autonomic controlling agents and health drinks and foods” (priority 2001, published 2003)
# Legend:
# [1] = system: sympathetic nerve adrenal branches; experiment: efferent neural activity of the sympathetic nerve adrenal branches after intravenous carnosine; type: in vivo, rat; settings: 100 ng intravenous
# Description: According to the method of Niijima (Neurobiology 3:299-307, 1995), the effect of carnosine on the autonomic nerve activity was investigated. Wistar male rats, weighing about 300 g, that had been kept in an environment of room temperature (24° C.) and free access to the feed were fasted (with free access to water) 12 hours before the start of the experiment. Rats were subjected to abdominal section under urethane anesthesia (1 g/kg body weight, intraperitoneal administration), neurofilaments were isolated from central cut ends of a sympathetic nerve branch or a vagal nerve branch, and the efferent neural activity was recorded via an AC amplifier. The neural activity was observed using an oscilloscope and was recorded into magnetic tape. At the same time, the time course of the neural activity was recorded with a pen-type recorder via a rate meter with a reset time set at 5 seconds.
# Carnosine (100 ng or 1,000 ng dissolved in 0.1 ml physiological saline) was intravenously administered. As the control, physiological saline (0.1 ml) was alone administered intravenously.
# The effect of carnosine administration was calculated as the neural activity count (%) after carnosine administration relative to neural activity count (mean value of 10 activity counts during 5 minutes) before administration set at 100. Five rats were used for each experiment. Data were tested with ANOVA (p<0.05) and were expressed as mean +/− standard error.
# [2] = system: 2DG hyperglycemic rats; experiment: anti-hyperglycemia in the 2DG hyperglycemic rats; type: in vivo, rat
# From the text: Since blood glucose levels are expected to be reduced when the activity of the autonomic nervous system is controlled by carnosine at a low dose, the effect of carnosine on anti-hyperglycemia in the 2DG hyperglycemic rats was investigated according to the method of Chun et al. (Brain Research 809:165-174, 1998). Wistar male rats (initial weight, about 250 g) were used that had been acclimated for at least 10 days to an environment in a room illuminated with an incandescent light of 80 lux on the average for 12 hours at room temperature (24 +/− 1° C.) with free access to the feed.
# Three days before the experiment, rats under anesthesia with pentobarbital (35 mg/kg body weight, intraperitoneal administration) received the insertion of a cardiac catheter comprising a silastic tubing (Dow Corning, Midland, Mich.) and a polyethylene tubing (Clay Adams, Parsippany, N.J.) into the right atrium and a polyethylene tubing into the right lateral cerebral ventricle (LCV). On the day of the experiment, carnosine dissolved in physiological saline was administered to the rats intracranially (0.01 ml) or intraperitoneally (0.1 ml) with the simultaneous administration into the rat LCV of 80 μmol 2-deoxy-D-glucose (2DG, 0.01 ml). The control rats received physiological saline instead of carnosine and an artificial cerebrospinal fluid in stead of 2DG, each at the same amount.
# Sixty minutes after the administration of 2DG into the LCV, 300 μl of blood was taken via the cardiac catheter and the plasma level of glucose was determined. The glucose concentrations in the plasma were measured using the Fuji-Dri-chem system (Fuji Film Tokyo) according to the glucose oxidase method. Changes in plasma concentrations of glucose were expressed as a ratio (%) relative to the control value at 90 minutes after 2DG administration set at 100. Four or five rats were used in the experiments. Data were tested with ANOVA (p<0.05) and were expressed as mean +/− standard error.
# [3] = system: autonomic nervous system in humans; experiment: autonomic nerve activity in humans by ECG R-R interval power spectral analysis; type: in vivo, human; settings: for mean promotion ratio of the overall autonomic nerve activity / mean promotion ratio of the parasympathetic nerve activity: responding subjects
# Description: The resting ECG of the subjects was measured for 5 minutes, and ECG was measured for 5 minutes at 30 minutes and 60 minutes after drinking the test sample, respectively. In order to avoid influences by changes in respiration, ECG was measured when the subjects were forced to respire at 15 respirations per minute. The intervals between R-waves (R-R intervals) of the ECG were determined, and were subjected to a power spectral analysis according to the program prepared by Moritani et al. (J. Sport Med. Sci. 7:31-39, 1993). For cycle components, in conformity to the classification criteria of the Cardiology society in Europe and the USA (Circulation 93:1043-1065, 1996), heart rate variation was divided into the low frequency (0.03-0.15 Hz) and the high frequency (0.15-0.4 Hz).
# Carnosine was weighed out on a chartula at 0.04 mg, 0.2 mg, 1 mg, 5 mg, and 25 mg/capita. For 0.2 mg, one mg of a 1:4 mixture of carnosine and starch powder (⅕ dilution) was weighed out. For 0.04 mg, one mg of a 1:4 mixture of carnosine and starch powder that further mixed with the starch powder at 1:4 ( 1/25 dilution) was weighed out. Carnosine was taken by licking the one weighed out on chartula.
# There were 8 subjects, 21-51 years old (33.0 +/− 11.95 years old) and weighing 54-73.5 kg (64.3 +/− 7.01 kg), and among them, the experiments of the 0.04 mg and the 0.2 mg were performed on six subjects, the experiments of the 1 mg and the 5 mg were performed on 8 subjects, and the experiment of the 25 mg was performed on 5 subjects.
# [4] = system: carnosine-degrading enzyme; experiment: carnosine-degrading enzyme activity in the plasma of rats; type: in vitro ADME
# [5] = target: T1, carnosine-degrading enzyme (Homo sapiens, UniProt Q96KN2); settings: cited from earlier work
# T1 construct: host or cells: human blood
# T1 sequence (Q96KN2 27-507 limits assumed): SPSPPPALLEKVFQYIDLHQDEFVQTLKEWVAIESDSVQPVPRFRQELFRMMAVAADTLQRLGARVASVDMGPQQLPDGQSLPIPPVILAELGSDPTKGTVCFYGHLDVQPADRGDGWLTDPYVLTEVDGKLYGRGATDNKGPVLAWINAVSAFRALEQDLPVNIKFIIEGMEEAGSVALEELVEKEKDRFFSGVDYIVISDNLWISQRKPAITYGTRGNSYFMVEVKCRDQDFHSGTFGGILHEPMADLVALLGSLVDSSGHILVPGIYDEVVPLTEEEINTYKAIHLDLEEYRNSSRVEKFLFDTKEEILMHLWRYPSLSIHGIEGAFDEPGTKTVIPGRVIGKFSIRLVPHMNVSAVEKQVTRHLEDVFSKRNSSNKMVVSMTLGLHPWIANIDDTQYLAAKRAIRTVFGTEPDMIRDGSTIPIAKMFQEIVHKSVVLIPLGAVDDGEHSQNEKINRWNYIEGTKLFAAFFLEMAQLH
# [6] = 0.04 mg oral ingestion, the one responding subject
smiles,measurement,setting,value
"NCCC(=O)N[C@@H](Cc1cnc[nH]1)C(=O)O [carnosine, β-alanyl-L-histidine]",suppression rate of efferent neural activity of the sympathetic nerve adrenal branches,[1]; 30 minutes after administration,31.3%
same,suppression rate of efferent neural activity of the sympathetic nerve adrenal branches,[1]; 60 minutes after administration,46.9%
same,suppression rate of efferent neural activity of the sympathetic nerve adrenal branches,[1]; 90 minutes after administration,58.1%
same,effect on hyperglycemia,[2]; 10 ng intracranially administered,suppressed hyperglycemia
same,suppression rate of hyperglycemia (plasma glucose),[2]; 10 ng intraperitoneal,16.0%
same,suppression rate of hyperglycemia (plasma glucose),[2]; 100 ng intraperitoneal,31.5%
same,suppression rate of hyperglycemia (plasma glucose),"[2]; 1,000 ng intraperitoneal",26.8%
same,suppression rate of hyperglycemia (plasma glucose),"[2]; 10,000 ng intraperitoneal",27.6%
same,suppression rate of hyperglycemia (plasma glucose),"[2]; 100,000 ng intraperitoneal",21.9%
same,hypoglycemic action,"[2]; high dose of 1,000,000 ng (3.3 mg/kg body weight) intraperitoneal",did not show any hypoglycemic action
same,ratio of those who exhibited promotion (more than 200% of the previous value of the parasympathetic nerve activity),[3]; 0.04 mg oral ingestion,16.7%
same,promotion ratio of the overall autonomic nerve activity,[3]; [6],195%
same,promotion ratio of the parasympathetic nerve activity,[3]; [6],249%
same,ratio of those who exhibited promotion (more than 200% of the previous value of the parasympathetic nerve activity),[3]; 0.2 mg oral ingestion,66.7%
same,mean promotion ratio of the overall autonomic nerve activity,[3]; 0.2 mg oral ingestion,329%
same,mean promotion ratio of the parasympathetic nerve activity,[3]; 0.2 mg oral ingestion,436%
same,ratio of those who exhibited promotion (more than 200% of the previous value of the parasympathetic nerve activity),[3]; 1 mg oral ingestion,37.5%
same,mean promotion ratio of the overall autonomic nerve activity,[3]; 1 mg oral ingestion,190%
same,mean promotion ratio of the parasympathetic nerve activity,[3]; 1 mg oral ingestion,259%
same,ratio of those who exhibited promotion (more than 200% of the previous value of the parasympathetic nerve activity),[3]; 5 mg oral ingestion,25.0%
same,mean promotion ratio of the overall autonomic nerve activity,[3]; 5 mg oral ingestion,410%
same,mean promotion ratio of the parasympathetic nerve activity,[3]; 5 mg oral ingestion,472%
same,ratio of those who exhibited promotion (more than 200% of the previous value of the parasympathetic nerve activity),[3]; 25 mg oral ingestion,0%
same,carnosine-degrading enzyme activity,[4],0.01 to 0.04 µmol/h/mL
same,activity of a carnosine-degrading enzyme in the blood,[5],2 to 7 µmol/h/mL
